# Measured values taken from PubChem BioAssay (NCI).
# Where “and” joins values, the source holds several entries; their conditions need not be identical. Equal values may be shown once.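 Dose response: 5 concentrations. Exposure: 48 h. Format: 96-well plates. Endpoint: linear interpolation; highest concentration if not reached. Here, GI50 denotes the concentration required for 50% inhibition of growth. TGI denotes the concentration required for complete inhibition of growth.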
# How the values were obtained:
# Test in all cases: NCI tumour cell line growth inhibition, 48 h
# SNB-75 CNS = test system: SNB-75 CNS
# OVCAR-4 ovarian = test system: OVCAR-4 ovarian
# UO-31 renal = test system: UO-31 renal
# SNB-19 CNS = test system: SNB-19 CNS
# HOP-62 NSCLC = test system: HOP-62 NSCLC
# DMS 273 small cell lung = test system: DMS 273 small cell lung
# SK-MEL-2 melanoma = test system: SK-MEL-2 melanoma
# NCI-H460 lung = test system: NCI-H460 lung
# NCI-H23 lung = test system: NCI-H23 lung
# HOP-92 NSCLC = test system: HOP-92 NSCLC
Compound,TGI (SNB-75 CNS),TGI (OVCAR-4 ovarian),TGI (UO-31 renal),TGI (SNB-19 CNS),TGI (HOP-62 NSCLC),TGI (DMS 273 small cell lung) [µM],TGI (SK-MEL-2 melanoma),TGI (NCI-H460 lung),TGI (NCI-H23 lung),TGI (HOP-92 NSCLC) [µM],GI50 (SNB-75 CNS) [µM],GI50 (OVCAR-4 ovarian) [µM],GI50 (NCI-H23 lung),GI50 (HOP-92 NSCLC) [µM],GI50 (UO-31 renal) [µM],GI50 (SNB-19 CNS) [µM],GI50 (HOP-62 NSCLC),GI50 (NCI-H460 lung),GI50 (SK-MEL-2 melanoma) [µM]
O=C(Nc1nc2ncn(CC(COc3ccccc3)OC(=O)c3ccccc3)c2c(=O)[nH]1)c1ccccc1 (stereo unspecified),> 100 µM,> 100 µM,> 100 µM,> 100 µM,> 100 µM,> 100,> 100 µM,–,–,–,–,–,–,–,–,–,–,–,–
O=C(NO)C12C3C4C1C1C2C3C41C(=O)NO (stereo unspecified),> 100 µM,–,> 100 µM,> 100 µM,> 100 µM,> 100,> 100 µM,> 100 µM,–,–,–,–,–,–,–,–,–,–,–
Cc1cc(Cl)ccc1N=C1NC(=O)C(CC(=O)Nc2ccc(Cl)cc2Cl)S1 (stereo unspecified),> 100 µM,> 100 µM,> 100 µM,> 100 µM,> 100 µM,> 100,> 100 µM,> 100 µM,> 100 µM,–,–,–,–,–,–,–,–,–,–
CC1C=CC(=O)C(n2cc(F)c(=O)[nH]c2=O)O1 (stereo unspecified),38.2 µM,34.3 µM,30 µM,53.6 µM,45.7 µM,47.4,–,54.2 µM,40.7 µM,35.5,–,–,–,–,–,–,–,–,–
Nc1ccn(C2CC(CO)C(O)C2O)c(=O)n1 (stereo unspecified),> 57.7 µM,> 57.7 µM,> 57.7 µM,> 57.7 µM,> 57.7 µM,> 57.7,> 57.7 µM,> 57.7 µM,–,–,–,–,–,–,–,–,–,–,–
COc1ccc(-c2ccc(C3CC(c4ccc(Cl)cc4)=NN3)o2)c([N+](=O)[O-])c1 (stereo unspecified),> 100 µM,> 100 µM,> 100 µM,> 100 µM,> 100 µM,–,> 100 µM,> 100 µM,> 100 µM,> 100,> 100,> 100,> 100 µM,> 100,> 100,> 100,> 100 µM,> 100 µM,> 100
CO[C@@H]1[C@H](OC(=O)NC(=O)CCl)CC[C@]2(CO2)[C@H]1[C@@]1(C)O[C@@H]1CC=C(C)C,24.7 µM and 200 µM,39.1 µM and 176 µM,26.6 µM and 46.2 µM,45.4 µM and 69.1 µM,41.1 µM and 44.9 µM,–,35.5 µM and 68.6 µM,24.2 µM and 49.6 µM,37 µM and 30.8 µM,38.5,–,25.9,2.99 µM and 5.94 µM,–,16.1,6.01,9.11 µM and 0.958 µM,0.755 µM and 2.6 µM,23
C[C@H]1[C@H](C)CC[C@]2(C(=O)O)CC[C@]3(C)C(=CC[C@@H]4[C@@]5(C)C/C(=C/c6ccco6)C(=O)C(C)(C)[C@@H]5CC[C@]43C)[C@H]12,71.8 µM,33.8 µM,13.1 µM,23.2 µM,16.9 µM,–,30.4 µM,11.9 µM,16.3 µM,12.5,18.6,11.8,3.85 µM,2.54,2.94,5.07,3.78 µM,3.37 µM,10.1
CCCCCCCC[N+](C)(CCCCCCCC)CCCCCCCC,1.42 µM,1.67 µM,1.62 µM,1.54 µM,1.61 µM,–,8.81 µM,1.45 µM,1.13 µM,0.803,0.489,0.371,0.267 µM,0.214,0.465,0.398,0.473 µM,0.43 µM,0.356
NS(=O)(=O)c1ccc(N2N=C3c4ccccc4CC3C2c2ccc(Cl)cc2)cc1 (stereo unspecified),7.94 µM,30.6 µM,23.8 µM,> 100 µM,47.4 µM,–,28.4 µM,41.8 µM,34.8 µM,28.9,2.97,9.77,11.4 µM,10.3,7.88,17.3,21.1 µM,19.7 µM,8.23
O=C(COc1ccccc1)NS(=O)(=O)c1ccccc1,> 100 µM,> 100 µM,> 100 µM,> 100 µM,> 100 µM,–,> 100 µM,> 100 µM,> 100 µM,> 100,–,–,–,–,–,–,–,–,–
Cc1nc(NC(=O)CCCN2C(=O)c3cccc4cccc(c34)C2=O)sc1C(=O)Nc1cc(C(=O)NCCCN(C)C)n(C)c1,> 100 µM,> 100 µM,> 100 µM,> 100 µM,> 100 µM,–,> 100 µM,> 100 µM,> 100 µM,> 100,> 100,94.8,> 100 µM,> 100,> 100,> 100,> 100 µM,> 100 µM,> 100
CC(C)(C)C(=O)C1CC(=O)c2ccccc2C1=O (stereo unspecified),31.3 µM,> 100 µM,67.8 µM,> 100 µM,62.9 µM,–,33.1 µM,> 100 µM,45.3 µM,66.5,–,–,–,–,–,–,–,–,–
COc1ccccc1CNCCCN1C(=O)c2ccc3c4c(ccc(c24)C1=O)C(=O)N(CCCNCCCN)C3=O,3.29 µM,2.67 µM,3.08 µM,4.05 µM,3.34 µM,–,3.03 µM,1.41 µM,2.55 µM,4.88,1.29,0.847,0.31 µM,0.971,0.744,0.605,0.444 µM,0.146 µM,0.907
COc1ccc(NC(=O)c2sc3nc(C)c(C(O)c4ccccc4)cc3c2N)cc1 (stereo unspecified),7.22 µM,> 100 µM,> 100 µM,> 100 µM,> 100 µM,–,85.7 µM,1.65 µM,> 100 µM,> 100,1.49,3.72,3.48 µM,12.7,2.62,5.24,3.67 µM,0.357 µM,4.88
COC(=O)C1=C(C(=O)OC)C23C=C(C)C1C2=C(C)C1(CC1)[C@@](C)(O)C3=O (stereo partly specified),0.547 µM,6.43 µM,0.464 µM,13.5 µM,0.754 µM,–,0.63 µM,1.19 µM,0.851 µM,1.53,0.198,0.484,0.17 µM,0.31,0.185,0.359,0.267 µM,0.203 µM,0.25
Cc1ccc(S(=O)(=O)N2CCc3ccc(O)c4c3C2Cc2cc(Cl)ccc2-4)cc1 (stereo unspecified),2.42 µM,7.51 µM,14.4 µM,14.8 µM,5.65 µM,–,3.41 µM,3.74 µM,3.28 µM,3.62,0.639,1.53,0.864 µM,0.354,1.52,1.48,1.56 µM,1.03 µM,1.1
